Results: patent US20170239289A1, “TREATMENT OF INFLAMMATION, RESPIRATORY TRACT INFECTIONS AND CYSTIC FIBROSIS” (Advanced Inhalation Therapies (AIT) Ltd., priority 2014, published 2017)

Experiments:
S. aureus (MSSA) = assay: Example 4: bacterial and fungal sputum load; type: in vivo, Staphylococcus aureus
Procedure: (§1) In addition to their standard care, subjects were administered three 30-minute inhalations per day of 160 ppm NO (with O2/air) for 10 working days (i.e., 5 days on treatment, 2 days off treatment, 5 days on treatment, for a total of 10 treatment days and 30 inhalations).
(§2) Secondary Endpoints—Efficacy: • Comparison of FEV1 improvement before and after NO treatment Observational Endpoints: • To determine the reduction in bacterial and fungal sputum load during each week of NO treatment compared to bacterial sputum load before NO treatment • Assess the improvement of lung function indices during and after NO intermittent inhalation treatment as determined by spirometry (i.e., FVC, FEV1, FEV1/FVC, forced expiratory flow 25% to 75% (FEF 25-75)) • Evaluate C-reactive protein (CRP) levels over time • Number of subjects with study drug related bleeding at any time point
(§3) Results of the bacterial and fungal sputum load analysis were highly variable, and due to limitations of the sampling and testing technique, must be interpreted with caution. Microbiology results were recorded from Day 1 to end of follow-up, for all samples taken during the study. In order for NO therapy to be efficient, a minimal exposure of the microbial population to NO for the whole duration of the study is required. […] Thus, data was analyzed only for cultures with positive results on Day 1. Furthermore, samples from 2 subjects (SO-01 and SO-02) were not analyzed by the central laboratory. A summary of the bacterial and fungal sputum results at Day 1 and Day 9 is presented according to subject in Table 18.

Achromobacter spp. [1] = assay: Example 1: microbial density in sputum (CFU) during NO inhalation; type: in vivo; conditions: Patient 3 (CFSCH03)
Procedure: (§4) NO was administered via inhalation to nine clinically stable human subjects diagnosed with, or suffering from CF from two medical centers. Patients received three daily 30-minute treatments of 160 ppm NO with at least 3.5 hours between treatments, for 5 days per week over a two-weeks time period.
(§5) Preliminary efficacy measures included determination of microbial density in sputum and measurements of forced exhaled volume at 1 second (FEV1). Inflammation associated with C-reactive protein (CRP) levels was assessed as a secondary outcome measure. Other inflammation biomarkers, such as interleukins, were also monitored (data not shown).
(§6) Bacterial load was measured for exemplary, non-limiting selection of species that included, P. alcaligenes, methicillin-sensitive Staphylococcus aureus (MSSA), Achromobacter spp., A. fumigates, non-mucoid P. aeruginosa and mucoid P. aeruginosa.

A. fumigatus = assay: as above; type: in vivo; conditions: Patient 3 (CFSCH03)
Procedure: as §4, §5, §6

P. alcaligenes = assay: as above; type: in vivo; conditions: Patient 1 (CFSCH01), by Day 9
Procedure: as §4, §5, §6

mucoid P. aeruginosa [2] = assay: as above; type: in vivo; conditions: Patient 4 (CFSCH04)
Procedure: as §4, §5, §6

nonmucoid P. aeruginosa = assay: as above; type: in vivo; conditions: Patient 4 (CFSCH04)
Procedure: as §4, §5, §6

Non-Mucoid P. aeruginosa = assay: Example 4: bacterial and fungal sputum load; type: in vivo
Procedure: as §1, §2, §3

Achromobacter spp. [3] = assay: Example 4: bacterial and fungal sputum load; type: in vivo
Procedure: as §1, §2, §3

Total P. aeruginosa = assay: Example 4: bacterial and fungal sputum load; type: in vivo
Procedure: as §1, §2, §3

mucoid P. aeruginosa [4] = assay: Example 4: bacterial and fungal sputum load; type: in vivo
Procedure: as §1, §2, §3

Aspergillus fumigatus = assay: Example 4: bacterial and fungal sputum load; type: in vivo
Procedure: as §1, §2, §3

C-reactive protein (CRP) = assay: Example 1: CRP levels in CF subjects treated with 160 ppm NO; type: in vivo, human; conditions: three subjects with baseline CRP greater than 5 mg/L
Procedure: as §4, §5

## [N]=O [NO, nitric oxide]
S. aureus (MSSA); Subject SC-03
  S. aureus (MSSA), % change from Day 1 to Day 9: −100.0%
S. aureus (MSSA); Subject SC-03, Day 1
  S. aureus (MSSA) sputum load: 29.5 CFU/mL × 10^−4
S. aureus (MSSA); Subject SC-03, Day 9
  S. aureus (MSSA) sputum load: 0 CFU/mL × 10^−4
S. aureus (MSSA); Subject SO03
  S. aureus (MSSA), % change from Day 1 to Day 9: +27.6%
S. aureus (MSSA); Subject SO03, Day 1
  S. aureus (MSSA) sputum load: 67.0 CFU/mL × 10^−4
S. aureus (MSSA); Subject SO03, Day 9
  S. aureus (MSSA) sputum load: 85.5 CFU/mL × 10^−4
Achromobacter spp. [1]
  decrease in Achromobacter spp. CFU: 1 log
A. fumigatus
  A. fumigatus CFU counts: elimination
P. alcaligenes
  decrease in P. alcaligenes CFUs: 2 log
Mucoid P. aeruginosa [2]
  decrease in mucoid P. aeruginosa counts: 2 log
Nonmucoid P. aeruginosa
  decrease in nonmucoid P. aeruginosa counts: 1 log
Non-Mucoid P. aeruginosa; Subject SC-02
  Non-Mucoid P. aeruginosa, % change from Day 1 to Day 9: +33.1%
Non-Mucoid P. aeruginosa; Subject SC-02, Day 1
  Non-Mucoid P. aeruginosa sputum load: 496 CFU/mL × 10^−4
Non-Mucoid P. aeruginosa; Subject SC-02, Day 9
  Non-Mucoid P. aeruginosa sputum load: 660 CFU/mL × 10^−4
Non-Mucoid P. aeruginosa; Subject SC-04
  Non-Mucoid P. aeruginosa, % change from Day 1 to Day 9: −57.9%
Non-Mucoid P. aeruginosa; Subject SC-04, Day 1
  Non-Mucoid P. aeruginosa sputum load: 80,000 CFU/mL × 10^−4
Non-Mucoid P. aeruginosa; Subject SC-04, Day 9
  Non-Mucoid P. aeruginosa sputum load: 33,700 CFU/mL × 10^−4
Non-Mucoid P. aeruginosa; Subject SC-05
  Non-Mucoid P. aeruginosa, % change from Day 1 to Day 9: −89.3%
Non-Mucoid P. aeruginosa; Subject SC-05, Day 1
  Non-Mucoid P. aeruginosa sputum load: 29,200 CFU/mL × 10^−4
Non-Mucoid P. aeruginosa; Subject SC-05, Day 9
  Non-Mucoid P. aeruginosa sputum load: 3,110 CFU/mL × 10^−4
Achromobacter spp. [3]; Subject SC-03
  Achromobacter spp., % change from Day 1 to Day 9: −94.3%
Achromobacter spp. [3]; Subject SC-03, Day 1
  Achromobacter spp. sputum load: 44.1 CFU/mL × 10^−4
Achromobacter spp. [3]; Subject SC-03, Day 9
  Achromobacter spp. sputum load: 2.50 CFU/mL × 10^−4
Total P. aeruginosa; Subject SC-01
  Total P. aeruginosa (central lab only), % change from Day 1 to Day 9: −3.7%
  Total P. aeruginosa (including Soroka lab), % change from Day 1 to Day 9: −3.7%
Total P. aeruginosa; Subject SC-01, Day 1
  Total P. aeruginosa (central lab only) sputum load: 2,700 CFU/mL × 10^−4
  Total P. aeruginosa (including Soroka lab) sputum load: 2,700 CFU/mL × 10^−4
Total P. aeruginosa; Subject SC-01, Day 9
  Total P. aeruginosa (central lab only) sputum load: 2,600 CFU/mL × 10^−4
  Total P. aeruginosa (including Soroka lab) sputum load: 2,600 CFU/mL × 10^−4
Total P. aeruginosa; Subject SC-02
  Total P. aeruginosa (central lab only), % change from Day 1 to Day 9: +33.1%
  Total P. aeruginosa (including Soroka lab), % change from Day 1 to Day 9: +33.1%
Total P. aeruginosa; Subject SC-02, Day 1
  Total P. aeruginosa (central lab only) sputum load: 496 CFU/mL × 10^−4
  Total P. aeruginosa (including Soroka lab) sputum load: 496 CFU/mL × 10^−4
Total P. aeruginosa; Subject SC-02, Day 9
  Total P. aeruginosa (central lab only) sputum load: 660 CFU/mL × 10^−4
  Total P. aeruginosa (including Soroka lab) sputum load: 660 CFU/mL × 10^−4
Total P. aeruginosa; Subject SC-04
  Total P. aeruginosa (central lab only), % change from Day 1 to Day 9: −57.9%
  Total P. aeruginosa (including Soroka lab), % change from Day 1 to Day 9: −57.9%
Total P. aeruginosa; Subject SC-04, Day 1
  Total P. aeruginosa (central lab only) sputum load: 80,000 CFU/mL × 10^−4
  Total P. aeruginosa (including Soroka lab) sputum load: 80,000 CFU/mL × 10^−4
Total P. aeruginosa; Subject SC-04, Day 9
  Total P. aeruginosa (central lab only) sputum load: 33,700 CFU/mL × 10^−4
  Total P. aeruginosa (including Soroka lab) sputum load: 33,700 CFU/mL × 10^−4
Total P. aeruginosa; Subject SC-05
  Total P. aeruginosa (central lab only), % change from Day 1 to Day 9: −90.2%
  Total P. aeruginosa (including Soroka lab), % change from Day 1 to Day 9: −90.2%
Total P. aeruginosa; Subject SC-05, Day 1
  Total P. aeruginosa (central lab only) sputum load: 32,100 CFU/mL × 10^−4
  Total P. aeruginosa (including Soroka lab) sputum load: 32,100 CFU/mL × 10^−4
Total P. aeruginosa; Subject SC-05, Day 9
  Total P. aeruginosa (central lab only) sputum load: 3,140 CFU/mL × 10^−4
  Total P. aeruginosa (including Soroka lab) sputum load: 3,140 CFU/mL × 10^−4
Total P. aeruginosa; Subject SO01
  Total P. aeruginosa (including Soroka lab), % change from Day 1 to Day 9: +611%
Total P. aeruginosa; Subject SO01, Day 1
  Total P. aeruginosa (including Soroka lab) sputum load: 450 CFU/mL × 10^−4
Total P. aeruginosa; Subject SO01, Day 9
  Total P. aeruginosa (including Soroka lab) sputum load: 3,200 CFU/mL × 10^−4
Total P. aeruginosa; Subject SO02
  Total P. aeruginosa (including Soroka lab), % change from Day 1 to Day 9: +250%
Total P. aeruginosa; Subject SO02, Day 1
  Total P. aeruginosa (including Soroka lab) sputum load: 100 CFU/mL × 10^−4
Total P. aeruginosa; Subject SO02, Day 9
  Total P. aeruginosa (including Soroka lab) sputum load: 350 CFU/mL × 10^−4
Mucoid P. aeruginosa [4]; Subject SC-01
  Mucoid P. aeruginosa, % change from Day 1 to Day 9: −3.7%
Mucoid P. aeruginosa [4]; Subject SC-01, Day 1
  Mucoid P. aeruginosa sputum load: 2,700 CFU/mL × 10^−4
Mucoid P. aeruginosa [4]; Subject SC-01, Day 9
  Mucoid P. aeruginosa sputum load: 2,600 CFU/mL × 10^−4
Mucoid P. aeruginosa [4]; Subject SC-05
  Mucoid P. aeruginosa, % change from Day 1 to Day 9: −99.9%
Mucoid P. aeruginosa [4]; Subject SC-05, Day 1
  Mucoid P. aeruginosa sputum load: 29,000 CFU/mL × 10^−4
Mucoid P. aeruginosa [4]; Subject SC-05, Day 9
  Mucoid P. aeruginosa sputum load: 30.0 CFU/mL × 10^−4
Aspergillus fumigatus; Subject SC-03
  Aspergillus fumigatus, % change from Day 1 to Day 9: −100.0%
Aspergillus fumigatus; Subject SC-03, Day 1
  Aspergillus fumigatus sputum load: 2.00 CFU/mL × 10^−4
Aspergillus fumigatus; Subject SC-03, Day 9
  Aspergillus fumigatus sputum load: 0 CFU/mL × 10^−4
C-reactive protein (CRP)
  reduction in CRP levels after treatment: 40-60%
